Data reported in PubChem BioAssay (NCI).
Several values for one entry are separate records, joined by “and”; a condition that tells them apart may be missing. Equal entries are not always repeated.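 Assay format: 96-well plates, 48-hour exposure. GI50: concentration for 50% inhibition of growth. TGI: concentration producing complete growth inhibition.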

system: TK-10 renal; test: growth of human tumour cells (NCI), 48 h

SMILES	TGI [µM]
COc1nc2ncc([C@@H](OC(C)=O)[C@@H](COC(C)=O)OC(C)=O)nc2c(=O)[nH]1	> 100
N/C(=N\S(=O)(=O)c1c(C(F)(F)F)cccc1C(F)(F)F)Nc1ccc(Cl)cc1	65
CNc1ncnc2c1cnn2COCC(O)CO (stereo not given)	> 100
COc1cc(-c2cc(=O)c3cc4c(=O)cc(-c5cc(OC)c(OC)c(OC)c5)oc4cc3o2)cc(OC)c1OC	42.5
Nc1nc(Cl)cc(NCC2(CO)CCC(CCc3ccccc3)C2)n1 (stereo not given)	48.9
O=c1ccn(C2OC(CO)C(P(=O)(O)O)C2O)c(=O)[nH]1 (stereo not given)	> 100

system: T-47D breast; test: growth of human tumour cells (NCI), 48 h

SMILES	TGI [µM]
COc1ccc(-c2c3c([nH]c(=S)c2C#N)CC(C)(C)CC3=O)cc1	> 100
O=c1[nH]cnc2c1ncn2[C@@H]1C[C@@H]1CO	> 100
COC(=O)c1cc2c(cc1CC1Cc3cc4c(cc3C1)CCC4)CCC2	> 100
COC(=O)CCc1cc(OC)c2c(c1)[C@H](C(=O)OC)[C@@H](c1ccc(O)c(OC)c1)O2	> 100
COC(=O)CN1c2nc(C#N)c(C#N)nc2N(CC(=O)OC)c2nc(C#N)c(C#N)nc21	8.6
COc1nc2ncc([C@@H](OC(C)=O)[C@@H](COC(C)=O)OC(C)=O)nc2c(=O)[nH]1	> 100
N/C(=N\S(=O)(=O)c1c(C(F)(F)F)cccc1C(F)(F)F)Nc1ccc(Cl)cc1	> 100
CNc1ncnc2c1cnn2COCC(O)CO (stereo not given)	> 100
COc1cc(-c2cc(=O)c3cc4c(=O)cc(-c5cc(OC)c(OC)c(OC)c5)oc4cc3o2)cc(OC)c1OC	> 100
Nc1nc(Cl)cc(NCC2(CO)CCC(CCc3ccccc3)C2)n1 (stereo not given)	30.6
O=c1ccn(C2OC(CO)C(P(=O)(O)O)C2O)c(=O)[nH]1 (stereo not given)	> 100

system: LOX IMVI melanoma; test: growth of human tumour cells (NCI), 48 h

SMILES	TGI [µM]
COc1ccc(-c2c3c([nH]c(=S)c2C#N)CC(C)(C)CC3=O)cc1	> 100
O=c1[nH]cnc2c1ncn2[C@@H]1C[C@@H]1CO	> 100
COC(=O)c1cc2c(cc1CC1Cc3cc4c(cc3C1)CCC4)CCC2	55
COC(=O)CCc1cc(OC)c2c(c1)[C@H](C(=O)OC)[C@@H](c1ccc(O)c(OC)c1)O2	> 100
COC(=O)CN1c2nc(C#N)c(C#N)nc2N(CC(=O)OC)c2nc(C#N)c(C#N)nc21	> 20.1
COc1nc2ncc([C@@H](OC(C)=O)[C@@H](COC(C)=O)OC(C)=O)nc2c(=O)[nH]1	> 100
N/C(=N\S(=O)(=O)c1c(C(F)(F)F)cccc1C(F)(F)F)Nc1ccc(Cl)cc1	48.1
CNc1ncnc2c1cnn2COCC(O)CO (stereo not given)	> 100
COc1cc(-c2cc(=O)c3cc4c(=O)cc(-c5cc(OC)c(OC)c(OC)c5)oc4cc3o2)cc(OC)c1OC	> 100
Nc1nc(Cl)cc(NCC2(CO)CCC(CCc3ccccc3)C2)n1 (stereo not given)	26.3
O=c1ccn(C2OC(CO)C(P(=O)(O)O)C2O)c(=O)[nH]1 (stereo not given)	> 100

system: UO-31 renal; test: growth of human tumour cells (NCI), 48 h

SMILES	TGI [µM]
COc1ccc(-c2c3c([nH]c(=S)c2C#N)CC(C)(C)CC3=O)cc1	> 100
O=c1[nH]cnc2c1ncn2[C@@H]1C[C@@H]1CO	> 100
COC(=O)c1cc2c(cc1CC1Cc3cc4c(cc3C1)CCC4)CCC2	> 100
COC(=O)CCc1cc(OC)c2c(c1)[C@H](C(=O)OC)[C@@H](c1ccc(O)c(OC)c1)O2	> 100
COC(=O)CN1c2nc(C#N)c(C#N)nc2N(CC(=O)OC)c2nc(C#N)c(C#N)nc21	> 25.6
COc1nc2ncc([C@@H](OC(C)=O)[C@@H](COC(C)=O)OC(C)=O)nc2c(=O)[nH]1	> 100
N/C(=N\S(=O)(=O)c1c(C(F)(F)F)cccc1C(F)(F)F)Nc1ccc(Cl)cc1	6.35
CNc1ncnc2c1cnn2COCC(O)CO (stereo not given)	> 100
COc1cc(-c2cc(=O)c3cc4c(=O)cc(-c5cc(OC)c(OC)c(OC)c5)oc4cc3o2)cc(OC)c1OC	> 100
Nc1nc(Cl)cc(NCC2(CO)CCC(CCc3ccccc3)C2)n1 (stereo not given)	33.3
O=c1ccn(C2OC(CO)C(P(=O)(O)O)C2O)c(=O)[nH]1 (stereo not given)	> 100

system: SK-MEL-28 melanoma; test: growth of human tumour cells (NCI), 48 h

SMILES	TGI [µM]
COc1ccc(-c2c3c([nH]c(=S)c2C#N)CC(C)(C)CC3=O)cc1	> 100
O=c1[nH]cnc2c1ncn2[C@@H]1C[C@@H]1CO	> 100
COC(=O)c1cc2c(cc1CC1Cc3cc4c(cc3C1)CCC4)CCC2	80.4
COC(=O)CCc1cc(OC)c2c(c1)[C@H](C(=O)OC)[C@@H](c1ccc(O)c(OC)c1)O2	> 100
COC(=O)CN1c2nc(C#N)c(C#N)nc2N(CC(=O)OC)c2nc(C#N)c(C#N)nc21	> 100
COc1nc2ncc([C@@H](OC(C)=O)[C@@H](COC(C)=O)OC(C)=O)nc2c(=O)[nH]1	> 100
N/C(=N\S(=O)(=O)c1c(C(F)(F)F)cccc1C(F)(F)F)Nc1ccc(Cl)cc1	> 100
CNc1ncnc2c1cnn2COCC(O)CO (stereo not given)	> 100
COc1cc(-c2cc(=O)c3cc4c(=O)cc(-c5cc(OC)c(OC)c(OC)c5)oc4cc3o2)cc(OC)c1OC	> 100
Nc1nc(Cl)cc(NCC2(CO)CCC(CCc3ccccc3)C2)n1 (stereo not given)	37.3
O=c1ccn(C2OC(CO)C(P(=O)(O)O)C2O)c(=O)[nH]1 (stereo not given)	> 100

system: SW-620 colon; test: growth of human tumour cells (NCI), 48 h

SMILES	TGI [µM]
COc1ccc(-c2c3c([nH]c(=S)c2C#N)CC(C)(C)CC3=O)cc1	> 100
O=c1[nH]cnc2c1ncn2[C@@H]1C[C@@H]1CO	> 100
COC(=O)c1cc2c(cc1CC1Cc3cc4c(cc3C1)CCC4)CCC2	> 100
COC(=O)CCc1cc(OC)c2c(c1)[C@H](C(=O)OC)[C@@H](c1ccc(O)c(OC)c1)O2	> 100
COC(=O)CN1c2nc(C#N)c(C#N)nc2N(CC(=O)OC)c2nc(C#N)c(C#N)nc21	> 25.9
COc1nc2ncc([C@@H](OC(C)=O)[C@@H](COC(C)=O)OC(C)=O)nc2c(=O)[nH]1	> 100
N/C(=N\S(=O)(=O)c1c(C(F)(F)F)cccc1C(F)(F)F)Nc1ccc(Cl)cc1	> 100
CNc1ncnc2c1cnn2COCC(O)CO (stereo not given)	> 100
COc1cc(-c2cc(=O)c3cc4c(=O)cc(-c5cc(OC)c(OC)c(OC)c5)oc4cc3o2)cc(OC)c1OC	> 100
Nc1nc(Cl)cc(NCC2(CO)CCC(CCc3ccccc3)C2)n1 (stereo not given)	36
O=c1ccn(C2OC(CO)C(P(=O)(O)O)C2O)c(=O)[nH]1 (stereo not given)	> 100

system: NCI-H522 lung; test: growth of human tumour cells (NCI), 48 h

SMILES	TGI [µM]	GI50
COc1ccc(-c2c3c([nH]c(=S)c2C#N)CC(C)(C)CC3=O)cc1	> 100	–
O=c1[nH]cnc2c1ncn2[C@@H]1C[C@@H]1CO	> 100	–
COC(=O)c1cc2c(cc1CC1Cc3cc4c(cc3C1)CCC4)CCC2	80	–
COC(=O)CCc1cc(OC)c2c(c1)[C@H](C(=O)OC)[C@@H](c1ccc(O)c(OC)c1)O2	> 100	–
COC(=O)CN1c2nc(C#N)c(C#N)nc2N(CC(=O)OC)c2nc(C#N)c(C#N)nc21	3.74	–
COc1nc2ncc([C@@H](OC(C)=O)[C@@H](COC(C)=O)OC(C)=O)nc2c(=O)[nH]1	> 100	> 100 µM and 41.7 µM
N/C(=N\S(=O)(=O)c1c(C(F)(F)F)cccc1C(F)(F)F)Nc1ccc(Cl)cc1	30.6	–
CNc1ncnc2c1cnn2COCC(O)CO (stereo not given)	> 100	–
COc1cc(-c2cc(=O)c3cc4c(=O)cc(-c5cc(OC)c(OC)c(OC)c5)oc4cc3o2)cc(OC)c1OC	> 85.8	–
Nc1nc(Cl)cc(NCC2(CO)CCC(CCc3ccccc3)C2)n1 (stereo not given)	25.6	–
O=c1ccn(C2OC(CO)C(P(=O)(O)O)C2O)c(=O)[nH]1 (stereo not given)	> 100	–

system: MALME-3M melanoma; test: growth of human tumour cells (NCI), 48 h

SMILES	TGI [µM]
COc1ccc(-c2c3c([nH]c(=S)c2C#N)CC(C)(C)CC3=O)cc1	> 100
O=c1[nH]cnc2c1ncn2[C@@H]1C[C@@H]1CO	> 100
COC(=O)c1cc2c(cc1CC1Cc3cc4c(cc3C1)CCC4)CCC2	> 100
COC(=O)CCc1cc(OC)c2c(c1)[C@H](C(=O)OC)[C@@H](c1ccc(O)c(OC)c1)O2	> 100
COC(=O)CN1c2nc(C#N)c(C#N)nc2N(CC(=O)OC)c2nc(C#N)c(C#N)nc21	3.01
COc1nc2ncc([C@@H](OC(C)=O)[C@@H](COC(C)=O)OC(C)=O)nc2c(=O)[nH]1	> 100
N/C(=N\S(=O)(=O)c1c(C(F)(F)F)cccc1C(F)(F)F)Nc1ccc(Cl)cc1	58.4
CNc1ncnc2c1cnn2COCC(O)CO (stereo not given)	> 100
COc1cc(-c2cc(=O)c3cc4c(=O)cc(-c5cc(OC)c(OC)c(OC)c5)oc4cc3o2)cc(OC)c1OC	> 100
Nc1nc(Cl)cc(NCC2(CO)CCC(CCc3ccccc3)C2)n1 (stereo not given)	33.3
O=c1ccn(C2OC(CO)C(P(=O)(O)O)C2O)c(=O)[nH]1 (stereo not given)	> 100

system: KM12 colon; test: growth of human tumour cells (NCI), 48 h

SMILES	TGI [µM]
COc1ccc(-c2c3c([nH]c(=S)c2C#N)CC(C)(C)CC3=O)cc1	> 100
O=c1[nH]cnc2c1ncn2[C@@H]1C[C@@H]1CO	> 100
COC(=O)c1cc2c(cc1CC1Cc3cc4c(cc3C1)CCC4)CCC2	> 100
COC(=O)CCc1cc(OC)c2c(c1)[C@H](C(=O)OC)[C@@H](c1ccc(O)c(OC)c1)O2	> 100
COC(=O)CN1c2nc(C#N)c(C#N)nc2N(CC(=O)OC)c2nc(C#N)c(C#N)nc21	27.8
COc1nc2ncc([C@@H](OC(C)=O)[C@@H](COC(C)=O)OC(C)=O)nc2c(=O)[nH]1	> 100
N/C(=N\S(=O)(=O)c1c(C(F)(F)F)cccc1C(F)(F)F)Nc1ccc(Cl)cc1	> 100
CNc1ncnc2c1cnn2COCC(O)CO (stereo not given)	> 100
COc1cc(-c2cc(=O)c3cc4c(=O)cc(-c5cc(OC)c(OC)c(OC)c5)oc4cc3o2)cc(OC)c1OC	> 100
Nc1nc(Cl)cc(NCC2(CO)CCC(CCc3ccccc3)C2)n1 (stereo not given)	30.1
O=c1ccn(C2OC(CO)C(P(=O)(O)O)C2O)c(=O)[nH]1 (stereo not given)	> 100
